Measured values published in US7799775B2, “Pyrimidine derivatives” (ASKA Pharmaceutical Co., Ltd., priority 2004, dated 2010).

Key:
human 5-HT1A receptor = target: T1, human 5-HT1A receptor (Homo sapiens, UniProt P08908); test: Affinity measurement of the compounds to human 5-HT1A receptor (in vitro), [3H]8-OH-DPAT binding; conditions: test compound 100 nmols/L; [3H]8-OH-DPAT 0.25 nmols/L; CHO cell membrane expressing human 5-HT1A receptor; read-out: Percent Inhibition (%) on Each Receptor's Binding at 10^−7M, 5-HT1A
T1 construct: purchased Packard Bioscience; host or cells: CHO cells (membrane preparation)
T1 sequence (P08908 1-422): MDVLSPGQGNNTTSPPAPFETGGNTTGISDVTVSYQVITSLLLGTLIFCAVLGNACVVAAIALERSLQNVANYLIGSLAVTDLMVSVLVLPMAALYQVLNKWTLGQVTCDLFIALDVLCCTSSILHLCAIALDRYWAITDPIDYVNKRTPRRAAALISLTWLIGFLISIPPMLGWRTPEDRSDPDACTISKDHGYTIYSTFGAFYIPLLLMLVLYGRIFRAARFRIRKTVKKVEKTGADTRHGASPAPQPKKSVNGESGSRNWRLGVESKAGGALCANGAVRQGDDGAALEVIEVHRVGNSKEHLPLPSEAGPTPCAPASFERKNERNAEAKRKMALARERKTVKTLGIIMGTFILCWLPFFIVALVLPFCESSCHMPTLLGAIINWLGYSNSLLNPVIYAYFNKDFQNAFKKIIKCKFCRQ
Procedure, shortened: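 Membranes from CHO cells expressing human 5-HT1A were incubated 60 min at 27 °C with 0.25 nmol/L [3H]8-OH-DPAT and compound in Tris/MgSO4/EDTA/ascorbate buffer, pH 7.4. Bound radioactivity was collected on PEI-soaked GF/C filters and counted; percent inhibition was corrected for non-specific binding defined with 10 μmol/L 8-OH-DPAT.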

5-HT1A receptor = target: T2, 5-HT1A receptor (Rattus norvegicus, UniProt P19327); test: Measurement of 5-HT1A receptor agonistic action on rats (in vivo): lower lip retraction and flat body posture; conditions: SD male rats, 10 mg/kg intraperitoneal; maximum of group evaluation points, 4 grades 0-3, observed 5-30 min after administration
T2 construct: from tissue; host or cells: whole animal (SD male rats), behavioural read-out
T2 sequence (P19327 1-422): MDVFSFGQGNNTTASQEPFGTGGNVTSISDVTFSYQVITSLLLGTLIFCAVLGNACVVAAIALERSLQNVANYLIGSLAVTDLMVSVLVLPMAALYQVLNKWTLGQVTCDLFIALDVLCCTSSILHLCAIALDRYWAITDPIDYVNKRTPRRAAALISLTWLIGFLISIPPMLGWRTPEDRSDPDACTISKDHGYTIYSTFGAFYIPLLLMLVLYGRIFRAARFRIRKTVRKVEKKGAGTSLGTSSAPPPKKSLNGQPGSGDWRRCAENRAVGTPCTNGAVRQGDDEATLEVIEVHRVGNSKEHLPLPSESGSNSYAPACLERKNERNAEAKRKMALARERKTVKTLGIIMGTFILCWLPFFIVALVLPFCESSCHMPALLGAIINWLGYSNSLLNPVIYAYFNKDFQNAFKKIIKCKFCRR
Experimental: (3) Measurement of 5-HT1A Receptor Agonistic Action on Rats (in Vivo):
Seven weeks old SD male rats were divided into 4-5 rats per group which were accustomized to the experimental environments twice. A week after the second accustomization, the rats were put into a transparent plastic case, and 10 mg/kg of a test compound (as dissolved in 1N-hydrochloric acid and diluted with suitable amount of saline) was intraperitoneally administered thereto. Immediately before the administration and 5, 10, 20 and 30 minutes after the administration, behaviors of the rats were observed as to lower lip retraction (LLP) and flat body posture (FBP). The results were evaluated in 4 grades (0: no reaction, 1: feeble reaction, 2: medium reaction, 3: maximum reaction).

Nn1c(CCCCN2CCN(c3ccc4ccccc4n3)CC2)nc2c(c1=O)CCCC2 [Example 4-1, 3-amino-2-[4-(4-quinolin-2-ylpiperazin-1-yl)butyl]-5,6,7,8-tetrahydro-3H-quinazolin-4-one]
inhibition at 0.1 µM (human 5-HT1A receptor): 101%
5-HT1A Receptor Agonistic Action on Rats, FBP (5-HT1A receptor): 1.8
5-HT1A Receptor Agonistic Action on Rats, LLR (5-HT1A receptor): 1.5

Nn1c(CCCCN2CCN(c3ccc4ccccc4n3)CC2)nc2ccccc2c1=O [Example 4-3, 3-amino-2-[4-(4-quinolin-2-ylpiperazin-1-yl)butyl]-3H-quinazolin-4-one]
inhibition at 0.1 µM (human 5-HT1A receptor): 98.2%
5-HT1A Receptor Agonistic Action on Rats, FBP (5-HT1A receptor): 1.8
5-HT1A Receptor Agonistic Action on Rats, LLR (5-HT1A receptor): 1.8

Cc1cc(N2CCN(CCCCc3nc4ccccc4c(=O)n3N)CC2)nc2ccccc12 [Example 4-4, 3-amino-2-[4-[4-(4-methylquinolin-2-yl)piperazin-1-yl]butyl]-3H-quinazolin-4-one]
inhibition at 0.1 µM (human 5-HT1A receptor): 98.7%
5-HT1A Receptor Agonistic Action on Rats, FBP (5-HT1A receptor): 2.6
5-HT1A Receptor Agonistic Action on Rats, LLR (5-HT1A receptor): 2.8

Nn1c(CCCCN2CCN(c3ccc4ccccc4n3)CC2)nc2ccsc2c1=O [Example 4-18, 3-amino-2-[4-(4-quinolin-2-ylpiperazin-1-yl)butyl]-3H-thieno[3,2-d]-pyrimidin-4-one]
inhibition at 0.1 µM (human 5-HT1A receptor): 98%
5-HT1A Receptor Agonistic Action on Rats, FBP (5-HT1A receptor): 2.8
5-HT1A Receptor Agonistic Action on Rats, LLR (5-HT1A receptor): 2.2

Nn1c(CCCCN2CCN(c3ccc4ccccc4n3)CC2)nc2cccc(Cl)c2c1=O [Example 4-25, 3-amino-5-chloro-2-[4-(4-quinolin-2-ylpiperazin-1-yl)butyl]-3H-quinazolin-4-one]
inhibition at 0.1 µM (human 5-HT1A receptor): 99.4%
5-HT1A Receptor Agonistic Action on Rats, FBP (5-HT1A receptor): 1.0
5-HT1A Receptor Agonistic Action on Rats, LLR (5-HT1A receptor): 0.8

Cn1c(CCCCN2CCN(c3ccc4ccccc4n3)CC2)nc2c(c1=O)CCCC2 [Example 7-1, 3-methyl-2-[4-(4-quinolin-2-ylpiperazin-1-yl)butyl]-5,6,7,8-tetrahydro-3H-quinazolin-4-one]
inhibition at 0.1 µM (human 5-HT1A receptor): 97.5%
5-HT1A Receptor Agonistic Action on Rats, FBP (5-HT1A receptor): 1.8
5-HT1A Receptor Agonistic Action on Rats, LLR (5-HT1A receptor): 2.2

CCn1c(CCCCN2CCN(c3ccc4ccccc4n3)CC2)nc2c(c1=O)CCCC2 [Example 7-2, 3-2-[4-(4-quinolin-2-ylpiperazin-1-yl)butyl]-5,6,7,8-tetrahydro-3H-quinazolin-4-one]
inhibition at 0.1 µM (human 5-HT1A receptor): 93.3%
5-HT1A Receptor Agonistic Action on Rats, FBP (5-HT1A receptor): 0.4
5-HT1A Receptor Agonistic Action on Rats, LLR (5-HT1A receptor): 0.2

Cc1cc(N2CCN(CCCCc3nc4c(c(=O)n3C)CCCC4)CC2)nc2ccccc12 [Example 7-6, 3-methyl-2-[4-[4-(4-methylquinolin-2-yl)piperazin-1-yl]butyl]-5,6,7,8-tetrahydro-3H-quinazolin-4-one]
inhibition at 0.1 µM (human 5-HT1A receptor): 97.4%
5-HT1A Receptor Agonistic Action on Rats, FBP (5-HT1A receptor): 2.0
5-HT1A Receptor Agonistic Action on Rats, LLR (5-HT1A receptor): 2.4

CCn1c(CCCCN2CCN(c3cc(C)c4ccccc4n3)CC2)nc2c(c1=O)CCCC2 [Example 7-7, 3-ethyl-2-[4-[4-(4-methylquinolin-2-yl)piperazin-1-yl]butyl]-5,6,7,8-tetrahydro-3H-quinazolin-4-one]
inhibition at 0.1 µM (human 5-HT1A receptor): 96.9%
5-HT1A Receptor Agonistic Action on Rats, FBP (5-HT1A receptor): 2.2
5-HT1A Receptor Agonistic Action on Rats, LLR (5-HT1A receptor): 2.2

Cn1c(CCCCN2CCN(c3ccc4ccccc4n3)CC2)nc2ccccc2c1=O [Example 7-20, 3-methyl-2-[4-(4-quinolin-2-ylpiperazin-1-yl)butyl]-3H-quinazolin-4-one]
inhibition at 0.1 µM (human 5-HT1A receptor): 101%
5-HT1A Receptor Agonistic Action on Rats, FBP (5-HT1A receptor): 1.8
5-HT1A Receptor Agonistic Action on Rats, LLR (5-HT1A receptor): 1.6

CN1CCN(c2nccc3ccsc23)CC1 [Production Example 6, 7-(4-methylpiperazin-1-yl)thieno[2,3-c]pyridine]
inhibition at 0.1 µM (human 5-HT1A receptor): 90.1%
5-HT1A Receptor Agonistic Action on Rats, FBP (5-HT1A receptor): 2.4
5-HT1A Receptor Agonistic Action on Rats, LLR (5-HT1A receptor): 2.8

CN1CCN(c2nccc3sccc23)CC1 [Production Example 8, 4-(4-methylpiperazin-1-yl)thieno[3,2-c]pyridine]
inhibition at 0.1 µM (human 5-HT1A receptor): 78.3%
5-HT1A Receptor Agonistic Action on Rats, FBP (5-HT1A receptor): 0.8
5-HT1A Receptor Agonistic Action on Rats, LLR (5-HT1A receptor): 2.0

COc1ccc2ccnc(N3CCNC(C)C3)c2c1 (centres unmarked) [Production Example 38, 7-methoxy-1-(3-methylpiperazin-1-yl)isoquinoline]
inhibition at 0.1 µM (human 5-HT1A receptor): 94.8%

Cc1ccc2ccnc(N3CCN(C)CC3)c2c1 [Production Example 47, 7-methyl-1-(4-methylpiperazin-1-yl)isoquinoline]
inhibition at 0.1 µM (human 5-HT1A receptor): 90.6%

Clc1ccc2ccnc(N3CCNCC3)c2c1 [Production Example 49, 7-chloro-1-piperazin-1-ylisoquinoline]
inhibition at 0.1 µM (human 5-HT1A receptor): 88.7%
5-HT1A Receptor Agonistic Action on Rats, FBP (5-HT1A receptor): 1.8
5-HT1A Receptor Agonistic Action on Rats, LLR (5-HT1A receptor): 2.2

COc1ccc2ccnc(N3CCN4CCC[C@H]4C3)c2c1 [Production Example 72, 1-((8aS)-octahydropyrrolo[1,2-a]pyrazin-2-yl)-7-methoxyisoquinoline]
inhibition at 0.1 µM (human 5-HT1A receptor): 96.7%
5-HT1A Receptor Agonistic Action on Rats, FBP (5-HT1A receptor): 3.0
5-HT1A Receptor Agonistic Action on Rats, LLR (5-HT1A receptor): 3.0

Clc1ccc2ccnc(N3CCN4CCC[C@H]4C3)c2c1 [Production Example 73, 7-chloro-1-((8aS)-octahydropyrrolo[1,2-a]pyrazin-2-yl)isoquinoline]
inhibition at 0.1 µM (human 5-HT1A receptor): 98.3%
5-HT1A Receptor Agonistic Action on Rats, FBP (5-HT1A receptor): 2.2
5-HT1A Receptor Agonistic Action on Rats, LLR (5-HT1A receptor): 2.4

c1cc2ccoc2c(N2CCN3CCC[C@H]3C2)n1 [Production Example 102, 7-((8aS)-octahydropyrrolo[1,2-a]pyrazin-2-yl)furo[2,3-c]-pyridine]
inhibition at 0.1 µM (human 5-HT1A receptor): 95.4%
5-HT1A Receptor Agonistic Action on Rats, FBP (5-HT1A receptor): 3.0
5-HT1A Receptor Agonistic Action on Rats, LLR (5-HT1A receptor): 3.0

c1cc2ccsc2c(N2CCN3CCC[C@H]3C2)n1 [Production Example 103, 7-((8aS)-octahydropyrrolo[1,2-a]pyrazin-2-yl)thieno[2,3-c]pyridine]
inhibition at 0.1 µM (human 5-HT1A receptor): 91.4%
5-HT1A Receptor Agonistic Action on Rats, FBP (5-HT1A receptor): 0.4
5-HT1A Receptor Agonistic Action on Rats, LLR (5-HT1A receptor): 3.0

c1cc2sccc2c(N2CCN3CCC[C@H]3C2)n1 [Production Example 104, 4-((8aS)-octahydropyrrolo[1,2-a]pyrazin-2-yl)thieno[3,2-c]pyridine]
inhibition at 0.1 µM (human 5-HT1A receptor): 85.5%
5-HT1A Receptor Agonistic Action on Rats, FBP (5-HT1A receptor): 0.2
5-HT1A Receptor Agonistic Action on Rats, LLR (5-HT1A receptor): 1.6

Cc1cc2c(N3CCN4CCC[C@H]4C3)nccc2s1 [Production Example 107, 4-((8aS)-octahydropyrrolo[1,2-a]pyrazin-2-yl)-2-methylthieno[3,2-c]-pyridine]
inhibition at 0.1 µM (human 5-HT1A receptor): 98.5%
5-HT1A Receptor Agonistic Action on Rats, FBP (5-HT1A receptor): 3.0
5-HT1A Receptor Agonistic Action on Rats, LLR (5-HT1A receptor): 2.8

c1cc2ccsc2c(N2CCN3CCC[C@@H]3C2)n1 [Production Example 108, 7-((8aR)-octahydropyrrolo[1,2-a]pyrazin-2-yl)thieno[2,3-c]pyridine]
inhibition at 0.1 µM (human 5-HT1A receptor): 90.6%
5-HT1A Receptor Agonistic Action on Rats, FBP (5-HT1A receptor): 0.4
5-HT1A Receptor Agonistic Action on Rats, LLR (5-HT1A receptor): 2.4
